Test system: senescent HEPG2 cells
Assay: Senescence assay: viability of senescent HEPG2 cells
Assay type: cell-based
Details: Homo sapiens, 24-72 hours incubation, viability by CellTiter-Glo or XTT, read-out: Absolute IC50 average HEPG2_SEN IC50
Experimental: Cells were maintained in DMEM media (high glucose, 4 mM L-glutamine, no sodium pyruvate) supplemented with 10% fetal bovine serum in a humidified incubator at 37° C. with 5% carbon dioxide. Senescence was induced via treatment with a sublethal concentration of chemotherapy (bleomycin, gemcitabine, doxorubicin, 5-fluorouridine), followed by a rest period without chemotherapy similarly to what is reported by others in the field (e.g., Aoshiba et al., 2003 Eur Respir J 22:436-443). Senescence was qualified by low EdU (5-ethynyl-2′-deoxyuridine) incorporation and high SA-β-Gal (senescence-associated beta-galactosidase) staining compared to proliferating untreated cells. Senescent cells were plated into 96-well plates at a density of 5-15,000 cells/well. The next day, compounds were added in duplicate across ten different concentrations spanning roughly four Log10 units. Cells were incubated with the compounds for 24-72 hours, at which point viability was quantified using CellTiter-Glo (Promega) or XTT (R&D Systems). The viability for treated cells was determined relative to untreated control cells. The log of the compound concentration vs. normalized mean viability was fit to a four parameters Hill function with variable slope. The bottom was constrained to be greater than zero. The X mean value for Y=50 was interpolated to determine the absolute IC50. The results in Table 2 indicate that many of the compounds are active in cells and can induce a dose dependent decrease in the viability of senescent HEPG2 and A549 cells.

IC50 [µM] | SMILES
0.01 to 0.1 | C#CC(F)(F)[C@]1(O)CC[C@H]2[C@@H]3CCC4=C/C(=N/O[C@H]5C[C@H](O)[C@H](O)[C@H](C)O5)CCC4=C3[C@H](c3ccc(C4CC4)cc3)C[C@@]21C [Compound 5, (8S,11S,13S,14S,17S,E)-11-(4-cyclopropylphenyl)-17-(1,1-difluoroprop-2-yn-1-yl)-17-hydroxy-13-methyl-1,2,6,7,8,11,12,13,14,15,16,17-dodecahydro-3H-cyclopenta[a]phenanthren-3-one O-((2S,4S,5S,6S)-4,5-dihydroxy-6-methyltetrahydro-2H-pyran-2-yl) oxime]
0.0001 to 0.01 | C#CC(F)(F)[C@]1(O)CC[C@H]2[C@@H]3CCC4=C/C(=N/NC(=O)O[C@@H]5O[C@@H](C)[C@@H](OC(C)=O)[C@@H](OC(C)=O)[C@@H]5OC(C)=O)CCC4=C3[C@H](c3ccc(C4CC4)cc3)C[C@@]21C [Compound 30, (2S,3S,4R,5R,6S)-2-((2-((8S,11S,13S,14S,17S,E)-11-(4-cyclopropylphenyl)-17-(1,1-difluoroprop-2-yn-1-yl)-17-hydroxy-13-methyl-1,2,6,7,8,11,12,13,14,15,16,17-dodecahydro-3H-cyclopenta[a]phenanthren-3-ylidene)hydrazine-1-carbonyl)oxy)-6-methyltetrahydro-2H-pyran-3,4,5-triyl triacetate]
0.0001 to 0.01 | C#CC(F)(F)[C@]1(O)CC[C@H]2[C@@H]3CCC4=C/C(=N/NC(=O)COC)CCC4=C3[C@H](c3ccc(C4CC4)cc3)C[C@@]21C [Compound 36, N′-((8S,11S,13S,14S,17S,E)-11-(4-cyclopropylphenyl)-17-(1,1-difluoroprop-2-yn-1-yl)-17-hydroxy-13-methyl-1,2,6,7,8,11,12,13,14,15,16,17-dodecahydro-3H-cyclopenta[a]phenanthren-3-ylidene)-2-methoxyacetohydrazide]
0.0001 to 0.01 | C#CC(F)(F)[C@]1(O)CC[C@H]2[C@@H]3CCC4=C/C(=N\O[C@H]5C[C@H](O)[C@H](O)[C@H](C)O5)CCC4=C3[C@H](c3ccc(C4CC4)cc3)C[C@@]21C [Compound 6, (8S,11S,13S,14S,17S,Z)-11-(4-cyclopropylphenyl)-17-(1,1-difluoroprop-2-yn-1-yl)-17-hydroxy-13-methyl-1,2,6,7,8,11,12,13,14,15,16,17-dodecahydro-3H-cyclopenta[a]phenanthren-3-one O-((2S,4S,5S,6S)-4,5-dihydroxy-6-methyltetrahydro-2H-pyran-2-yl) oxime]
0.0001 to 0.01 | C#CC(F)(F)[C@]1(O)CC[C@H]2[C@@H]3CCC4=C/C(=N/NC(=O)OCC)CCC4=C3[C@H](c3ccc(C4CC4)cc3)C[C@@]21C [Compound 40, ethyl (E)-2-((8S,11S,13S,14S,17S)-11-(4-cyclopropylphenyl)-17-(1,1-difluoroprop-2-yn-1-yl)-17-hydroxy-13-methyl-1,2,6,7,8,11,12,13,14,15,16,17-dodecahydro-3H-cyclopenta[a]phenanthren-3-ylidene)hydrazine-1-carboxylate]
0.0001 to 0.01 | C#CC(F)(F)[C@]1(O)CC[C@H]2[C@@H]3CCC4=C/C(=N/NC(=O)NCC5CC5)CCC4=C3[C@H](c3ccc(C4CC4)cc3)C[C@@]21C [Compound 50, (E)-N-(cyclopropylmethyl)-2-((8S,11S,13S,14S,17S)-11-(4-cyclopropylphenyl)-17-(1,1-difluoroprop-2-yn-1-yl)-17-hydroxy-13-methyl-1,2,6,7,8,11,12,13,14,15,16,17-dodecahydro-3H-cyclopenta[a]phenanthren-3-ylidene)hydrazine-1-carboxamide]
0.0001 to 0.01 | C#CC(F)(F)[C@]1(O)CC[C@H]2[C@@H]3CCC4=C/C(=N\OCCOCCO)CCC4=C3[C@@H](c3ccc(C4CC4)cc3)C[C@@]21C [Compound 11, (8S,11R,13S,14S,17S,Z)-11-(4-cyclopropylphenyl)-17-(1,1-difluoroprop-2-yn-1-yl)-17-hydroxy-13-methyl-1,2,6,7,8,11,12,13,14,15,16,17-dodecahydro-3H-cyclopenta[a]phenanthren-3-one O-(2-(2-hydroxyethoxy)ethyl)oxime]
